Experimental findings from patent US9573913B2, “Cathepsin cysteine protease inhibitors” (Merck Sharp & Dohme Corp., priority 2013, dated 2017) are described below.

One assay has as its target human cathepsin K (UniProt P43236). Description: Cathepsin K Assay (hrbCat K). The class given is biochemical. The following applies: Z-Leu-Arg-AMC substrate, pH 5.5, 15 min preincubation; read-out: hrbCat K (IP (nM)). Put shortly:
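Human cathepsin K (0.4 nM) was preincubated 15 min at room temperature with compound in 50 mM MES pH 5.5, 2.5 mM EDTA, 2.5 mM DTT and 10% DMSO. Inhibition was fitted to a dose-response model.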

Another assay addresses T1, human cathepsin F (Homo sapiens, UniProt Q9UBX1).
T1 sequence (Q9UBX1 271-484): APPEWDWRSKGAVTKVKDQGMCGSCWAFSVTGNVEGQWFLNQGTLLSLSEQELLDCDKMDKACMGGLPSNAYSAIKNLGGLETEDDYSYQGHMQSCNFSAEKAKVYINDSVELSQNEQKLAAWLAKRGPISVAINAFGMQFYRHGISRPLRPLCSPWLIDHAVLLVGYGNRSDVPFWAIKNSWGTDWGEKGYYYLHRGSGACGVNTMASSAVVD
The assay can be described thus: Cathepsin F assay (hCat F). The class given is biochemical. To be noted: Z-Phe-Arg-AMC substrate, pH 5.5, 15 min preincubation; read-out: hCat F (IP (nM)). The method, boiled down:
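Enzyme (10 nM) was preincubated 15 min at room temperature with compounds (1/3 DMSO dilution series, 500–0.025 μM) in 50 mM MES pH 5.5, 2.5 mM EDTA, 2.5 mM DTT, 10% DMSO. Z-Phe-Arg-AMC (8 μM) was added and AMC fluorescence (Ex 360/Em 460 nm) followed for 20 min. % inhibition was fitted to dose-response curves.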

Structures are written as SMILES.

Take `CN=S1(=O)CCN(c2ccc(-c3sc(-c4cncc(F)c4)nc3[C@@H]3CCCC[C@H]3C(=O)NC3(C#N)CC3)cc2)CC1` [Example 138, (1R,2R)-N-(1-cyanocyclopropyl)-2-(2-(5-fluoropyridin-3-yl)-5-(4-(1-(methylimino)-1-oxidothiomorpholino)phenyl)thiazol-4-yl)cyclohexane-carboxamide]: the IC50 was 1.9 nM on human cathepsin K and 2130 nM at human cathepsin F.

Turning to `N#CC1(NC(=O)[C@@H]2CCCC[C@H]2c2nc(C3(c4ccc(F)cc4)CC3)sc2-c2ccc(N3CCS(=O)(=O)CC3)cc2)CC1` [Example 184, (1R,2R)-N-(1-cyanocyclopropyl)-2-(5-(4-(1,1-dioxidothiomorpho-lino)phenyl)-2-(1-(4-fluorophenyl)cyclo-propyl)thiazol-4-yl)cyclohexane-carboxamide], the IC50 on human cathepsin K came out at 5.2 nM; on human cathepsin F it was 1580 nM.

On to `N#CC1(NC(=O)[C@@H]2CCCC[C@H]2c2nc(C3CC(F)(F)C3)sc2-c2ccc(N3CCS(=O)(=O)CC3)cc2)CC1` [Compound 1, (1R,2R)-N-(1-cyanocyclopropyl)-2-(2-(3,3-difluorocyclobutyl)-5-(4-(1,1-dioxidothiomorpholino)phenyl)thiazol-4-yl)cyclohexanecarboxamide], for which the IC50 at human cathepsin K came to 5.8 nM; on human cathepsin F, 1000 nM.

For `C[C@@H](C#N)NC(=O)[C@@H]1C[C@@H](F)CC[C@H]1c1nc(C2(C(F)(F)F)CC2)sc1-c1ccc(N2CCS(=O)(=O)CC2)cc1` [Example 231, (1R,2R,5S)-N-((S)-1-cyanoethyl)-2-(5-(4-(1,1-dioxidothiomorpho-lino)phenyl)-2-(1-(trifluoromethyl)cyclopropyl)thiazol-4-yl)-5-fluorocyclohexane-carboxamide], the figures for the IC50 at human cathepsin K and on human cathepsin F were 2.8 nM and 3140 nM, respectively.

As to `COc1cnc(-c2nc([C@@H]3CCCC[C@H]3C(=O)NC3(C#N)CC3)c(-c3ccc(N4CCS(=O)(=O)CC4)cc3)s2)c(F)c1` [Example 60, (1R,2R)-N-(1-cyanocyclopropyl)-2-(5-(4-(1,1-dioxidothiomorpho-lino)phenyl)-2-(3-fluoro-5-methoxypyridin-2-yl)thiazol-4-yl)cyclohexane-carboxamide], the results for the IC50 on human cathepsin K and at human cathepsin F were 5.1 nM and 7910 nM, respectively.

Turning to `N#CC1(NC(=O)[C@@H]2CC(F)(F)CC[C@H]2c2nc(-c3ccc(F)cc3)sc2-c2ccc(C(=O)N3CCNC(=O)C3)cc2)CC1` [Example 30, (1R,2R)-N-(1-cyanocyclopropyl)-5,5-difluoro-2-(2-(4-fluorophenyl)-5-(4-(3-oxopiperazine-1-carbonyl)phenyl)thi-azol-4-yl)cyclohexane-carboxamide], the results for the IC50 at human cathepsin K and at human cathepsin F were 2.2 nM and 51 nM, respectively.

Consider `N#CC1(NC(=O)[C@@H]2CCCC[C@H]2c2nc(N3CCOCC3)sc2-c2ccc(N3CCS(=O)(=O)CC3)cc2)CC1` [Example 40, (1R,2R)-N-(1-cyanocyclopropyl)-2-(5-(4-(1,1-dioxidothiomorpho-lino)phenyl)-2-morpholinothiazol-4-yl)cyclohexane-carboxamide], for which the values for the IC50 on human cathepsin K and on human cathepsin F were 1.8 nM and at least 10000 nM, respectively.

As to `N#CC1(NC(=O)[C@@H]2CCCC[C@H]2c2nc(-c3cccnc3)sc2-c2ccc(N3CCS(=O)(=O)C4(CC4)C3)cc2)CC1` [Example 72, (1R,2R)-N-(1-cyanocyclopropyl)-2-(5-(4-(4,4-dioxido-4-thia-7-azaspiro[2.5]octan-7-yl)phenyl)-2-(pyridin-3-yl)thiazol-4-yl)cyclohexane-carboxamide], the IC50 stood at 2.3 nM on human cathepsin K and 2150 nM at human cathepsin F.

Consider `C[C@@H](C#N)NC(=O)[C@@H]1C[C@@H](F)CC[C@H]1c1nc(C2CC(F)C2)sc1-c1ccc(N2CCS(=O)(=O)CC2)cc1` (single isomer, unassigned) [Example 234, (1R,2R,5S)-N-((S)-1-cyanoethyl)-2-(5-(4-(1,1-dioxidothiomorpho-lino)phenyl)-2-((1S,3S or 1R,3R)-(3-fluorocyclobutyl)thiazol-4-yl)-5-fluorocyclohexane-carboxamide], for which the results for the IC50 at human cathepsin K and on human cathepsin F were 4 nM and 6100 nM, respectively.

As to `N#CC1(NC(=O)[C@@H]2CCC(F)(F)C[C@H]2c2nc(-c3ccc(F)cn3)sc2-c2ccc(N3CCS(=O)(=O)CC3)cc2)CC1` [Example 107, (1R,2R)-N-(1-cyanocyclopropyl)-2-(5-(4-(1,1-dioxidothiomorpho-lino)phenyl)-2-(5-fluoropyridin-2-yl)thiazol-4-yl)-4,4-difluorocyclohexane-carboxamide], the IC50 at human cathepsin K was determined as 3.3 nM; on human cathepsin F, 1000 nM.

As to `CC(C)(O)c1ccc(-c2nc([C@@H]3CCCC[C@H]3C(=O)NC3(C#N)CC3)c(-c3ccc(N4CCS(=O)(=O)CC4)cc3)s2)cc1` [Example 43, (1R,2R)-N-(1-cyanocyclopropyl)-2-(5-(4-(1,1-dioxidothiomorpho-lino)phenyl)-2-(4-(2-hydroxypropan-2-yl)phenyl)thiazol-4-yl)cyclohexane-carboxamide], the figures for the IC50 on human cathepsin K and at human cathepsin F were 1.2 nM and 1110 nM, respectively.

`N#CC1(NC(=O)[C@@H]2C[C@@H](F)CC[C@H]2c2nc(C3CC(F)C3)sc2-c2ccc(N3CCS(=O)(=O)CC3)cc2)CC1` (single isomer, unassigned) [Example 233, (1R,2R,5S)-N-(1-cyanocyclopropyl)-2-(5-(4-(1,1-dioxidothiomorpho-lino)phenyl)-2-((1S,3S or 1R,3R)-3-fluorocyclobutyl)thiazol-4-yl)-5-fluorocyclohexane-carboxamide]: the IC50 at human cathepsin K was 6 nM; at human cathepsin F, at least 10000 nM.

`N#CC1(NC(=O)[C@@H]2CCCC[C@H]2c2nc(-c3ccc(C(F)(F)F)nc3)sc2-c2ccc(N3CCS(=O)(=O)CC3)cc2)CC1` [Example 38, (1R,2R)-N-(1-cyanocyclopropyl)-2-(5-(4-(1,1-dioxidothiomorpho-lino)phenyl)-2-(6-(trifluoromethyl)pyridin-3-yl)thiazol-4-yl)cyclohexane-carboxamide]: the results for the IC50 at human cathepsin K and on human cathepsin F were 1.8 nM and 2060 nM, respectively.

On to `Cc1ncc(-c2nc([C@@H]3CCCC[C@H]3C(=O)NC3(C#N)CC3)c(-c3ccc(N4CCS(=O)(=O)CC4)cc3)s2)cn1` [Example 77, (1R,2R)-N-(1-cyanocyclopropyl)-2-(5-(4-(1,1-dioxidothiomorpho-lino)phenyl)-2-(2-methylpyrimidin-5-yl)thiazol-4-yl)cyclohexane-carboxamide], for which the IC50 at human cathepsin K was determined as 1.6 nM; at human cathepsin F, 1870 nM.

With `N#CC1(NC(=O)[C@@H]2CC3CC3C[C@H]2c2nc(-c3cncc(F)c3)sc2-c2ccc(N3CCS(=O)(=O)CC3)cc2)CC1` (single isomer, unassigned) [Example 112, (1R or 1S,3R,4R,6S or 6R)-N-(1-cyanocyclopropyl)-4-(5-(4-(1,1-dioxidothiomorpho-lino)phenyl)-2-(5-fluoropyridin-3-yl)thiazol-4-yl)bicyclo[4.1.0] heptane-3-carboxamide], the IC50 at human cathepsin K was found to be 0.9 nM; at human cathepsin F, 439 nM.

`CC(C)OC(=O)N1CC(c2ccc(-c3sc(-c4ccc(F)cc4)nc3[C@@H]3CCCC[C@H]3C(=O)NC3(C#N)CC3)cc2)C1` [Example 15, Isopropyl 3-(4-(4-((1R,2R)-2-((1-cyanocyclopropyl)carbamoyl)cyclohexyl)-2-(4-fluorophenyl)thiazol-5-yl)phenyl)azetidine-1-carboxylate]: the IC50 on human cathepsin K was 2.4 nM; on human cathepsin F, 124 nM.
